Source: PubChem BioAssay AID2744 (NMMLSC, 2010)
Activity calls are given as the source filed them.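 How the source made its calls: active means fitted half-maximal concentration for changing reporter fluorescence at or below a set limit; inactive means the rest.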

Target: Citrate synthase, peroxisomal (Saccharomyces cerevisiae (strain ATCC 204508 / S288c)) (UniProt P08679)
Assay: yeast TOR pathway CIT2-GFP reporter potency – flow cytometry, MLPCN hits, dose response (AID 2744)
Settings: S. cerevisiae CIT2-GFP strain, 3 h, at 33 µM (top of the series)

Citrate synthase, peroxisomal (Saccharomyces cerevisiae (strain ATCC 204508 / S288c)), sequence (P08679 whole entry, looked up): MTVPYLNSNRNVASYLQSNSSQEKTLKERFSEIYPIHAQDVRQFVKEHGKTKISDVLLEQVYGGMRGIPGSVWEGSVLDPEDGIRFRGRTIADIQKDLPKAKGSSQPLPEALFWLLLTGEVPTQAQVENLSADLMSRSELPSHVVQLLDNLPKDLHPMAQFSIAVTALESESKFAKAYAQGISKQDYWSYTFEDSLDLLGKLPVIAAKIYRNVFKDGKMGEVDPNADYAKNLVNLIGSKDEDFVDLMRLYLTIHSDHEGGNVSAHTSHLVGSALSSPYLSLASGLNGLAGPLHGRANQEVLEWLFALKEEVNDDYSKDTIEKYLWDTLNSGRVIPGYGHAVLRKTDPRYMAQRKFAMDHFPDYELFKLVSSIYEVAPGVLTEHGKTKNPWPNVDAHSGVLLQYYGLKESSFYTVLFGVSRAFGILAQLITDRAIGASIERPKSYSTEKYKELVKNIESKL

| Structure (SMILES) | GFP fluorescence, higher = induction |
| --- | --- |
| C[C@H]1C[C@@H](C)C(=O)[C@@H]([C@H](O)CC2CC(=O)NC(=O)C2)C1 | inactive |
| Cc1ccc(C(=O)O/N=C(\N)Cc2cccs2)c(Cl)c1 | inactive |
| COc1cccc(/C=C2\SC(=S)N(CCCC(=O)Nc3ccc(C(=O)O)cc3)C2=O)c1 | inactive |
| Cc1cc(O)c(C(=O)/C=C/c2ccc(Cl)cc2)c(=O)o1 | inactive |
| COC(=O)c1cc(N2C(=O)C3C(C2=O)C2(C)C=CC3(C)O2)ccc1Cl (centres undefined) | inactive |
| Cc1ccc2c(nc3s/c(=C\c4ccc(-c5ccccc5C(=O)O)o4)c(=O)n32)c1C | inactive |
| CCCCCCCCn1sccc1=O | inactive |
| CC(C)C[C@]1(c2ccccc2)ON(c2ccccc2C(F)(F)F)C1=O | inactive |
| O=c1c2cc(Cl)ccc2nc(-c2ccc([N+](=O)[O-])cc2)n1O | inactive |
| N#C/C(=C\c1ccccn1)c1nc2ccccc2s1 | inactive |
| Cc1ccccc1OCCOC(=O)c1ccc(S(=O)(=O)N2CCCC2)cc1 | inactive |
| Cc1ccc(S(=O)(=O)ON2C(=O)c3ccccc3C2=O)c(C)c1 | inactive |
| CN1CCN(C(=O)c2cc(COc3c(F)cccc3F)on2)CC1c1ccccc1 (centres undefined) | inactive |
| O=C(c1ccccn1)c1conc1C(=O)c1ccc(Br)cc1 | inactive |
| O=C(NC(=S)NNC(=O)c1cnccn1)c1ccc(Cl)cc1 | inactive |
| C[C@@H]1C[C@@H]([C@H](O)CC2CC(=O)NC(=O)C2)C(=O)[C@@H](C)C1 | inactive |
| CCOc1ccc(C(Nc2cccnc2)c2cc(Cl)c3cccnc3c2O)cc1 (centres undefined) | inactive |
| CC(C)CC(=O)NC(=S)Nc1nc(-c2ccccc2)cs1 | inactive |
| COc1ccc(C(=O)NC(=S)NNC(=O)CCc2ccccc2)cc1 | inactive |
| Cc1cc(C(=O)Nc2nc(-c3ccccn3)cs2)ccc1[N+](=O)[O-] | inactive |
| O=C(O)c1ccc2c(c1)C(=O)/C(=C/c1ccccc1)C2=O | inactive |
| O=C(OCC(=O)N1CCN(C(=O)c2ccco2)CC1)c1cc(-c2cccc(Br)c2)nc2ccccc12 | inactive |
| O=C1C(Cl)=C(N2CCN(Cc3ccccc3)CC2)C(=O)N1c1ccccc1 | inactive |

| Structure (SMILES) | GFP fluorescence, higher = induction |
| --- | --- |
| COc1cc(/C=C2\C(=O)ON=C2c2ccc(Cl)cc2)ccc1O | inactive |
| COc1ccc2c(c1)c(/C=C/c1cc[n+](C)cc1)cn2C | inactive |
| Cc1ccc(C(c2cc(Cl)c3cccnc3c2O)N2CCN(C)CC2)cc1 (centres undefined) | inactive |
| COc1ccccc1C(=O)NNC(=S)NC(=O)c1cccs1 | inactive |
| Cc1ccsc1/C=N/Nc1ncc(Cl)cc1Cl | inactive |
| COc1cc(C=C2C(=O)c3ccccc3C2=O)cc(OC)c1 | inactive |
| N#Cc1cc([N+](=O)[O-])c(-n2nnc3ccccc32)c([N+](=O)[O-])c1 | inactive |
| CCOC(=O)CSC1=NC(=O)/C(=C/c2ccc(OC)cc2)S1 | inactive |
| Cc1ccc(N2C(=O)C(Cl)=C(Nc3c(C)n(C)n(-c4ccccc4)c3=O)C2=O)cc1 | inactive |
| CCN1/C(=C/C=C/c2sc3ccccc3[n+]2CC)Sc2ccccc21 | inactive |
| CS(=O)(=O)c1sc(C#N)c2c1C(=O)CC(c1ccccc1)C2 (centres undefined) | inactive |
| O=[N+]([O-])c1cc(O)c2ncccc2c1 | inactive |
| O=C1ON=C(c2ccccc2)/C1=C/c1ccco1 | inactive |
| O=C(Nc1ccc(NC(=O)c2cc3ccccc3o2)cc1)c1ccco1 | inactive |
| Cc1nc2ccc(NC(=O)c3oc4ccc(F)cc4c3C)cc2s1 | inactive |
| O=C(O)c1ccc(COc2ccccc2C=C2C(=O)c3ccccc3C2=O)cc1 | inactive |
| CC(Oc1ccc2ccccc2c1)C(=O)NNC(=S)NC(=O)c1ccco1 (centres undefined) | inactive |
| C=CCOc1ccccc1C(=O)/C=C1/C(=O)Nc2ccccc21 | inactive |
| O=C1C=CC(=O)N1c1ccc(Sc2ccc([N+](=O)[O-])cc2)cc1 | inactive |
| COC(CNC(=O)c1ccc2c3c(onc13)-c1ccccc1C2=O)OC | inactive |
| CC(=O)Nc1ncnc2c1c(-c1ccc(Cl)cc1)nn2C(C)(C)C | inactive |
| Cc1cc(C)c(S(=O)(=O)ON2C(=O)c3ccccc3C2=O)cc1C | inactive |
| COC(=O)CCC(=O)OC1(C)C(=O)C2=COC(c3ccc(OC)cc3)=CC2=C(Br)C1=O (centres undefined) | inactive |

| Structure (SMILES) | GFP fluorescence, higher = induction |
| --- | --- |
| COc1cccc(N=Cc2nc(-c3ccccc3)oc2OC(C)=O)c1 | inactive |
| C#CCOCCOCCOCCNc1nc(N2CCN(C(=O)CCCCCCCCCCNC(=O)[C@H](CCCCN)n3cc(CCO)nn3)CC2)nc(N2CCN(C(=O)CCCCCCCCCCNC(=O)[C@H](CCCN=C(N)N)n3cc(C[C@@H](C)CC)nn3)CC2)n1 | inactive |
| O=[N+]([O-])c1ccc(S(=O)(=O)c2ccccc2)nc1 | inactive |
| Cc1ccc(/C=C2\SC(=S)N(Cc3ccccc3)C2=O)o1 | inactive |
| CCCc1cc(=O)oc2cc(C)cc(OCC(=O)NC3CC3)c12 | inactive |
| CC(=O)N(\C=C/C=C/C=C1\Sc2ccccc2C1=O)c1ccccc1 | inactive |
| Cc1ccc(C(=O)O)cc1N=Cc1cc(Br)cc(Br)c1O | inactive |
| COc1ccc(/C=C2/C(=O)ON=C2c2ccccc2)cc1OC | inactive |
| O=C(COc1ccccc1)NNC(=S)NC(=O)c1ccccc1 | inactive |
| C=CCn1c(C)c(/C=C/c2cc[n+](C)cc2)c2ccccc21 | inactive |
| CCCCCCCCCCCCCCCC[n+]1cccc2ccccc21 | inactive |
| CC(C)(C)C(=O)C(Cl)C(=O)Nc1ccccc1 (centres undefined) | inactive |
| CCN(CC)c1ccc(/C=C2/C(=O)c3ccc(C(=O)O)cc3C2=O)cc1 | inactive |
| CC[C@H](C)/C=C(C)/C=C/C1=CC2=C(Cl)C(=O)[C@@](C)(OC(C)=O)C(=O)C2=CO1 | inactive |
| O=C(NNC(=S)NC(=O)c1ccco1)c1ccc(F)cc1 | inactive |
| Cc1nn2c(NCc3ccccn3)c3c(nc2c1-c1ccccc1)CCC3 | inactive |
| COc1cccc(N=Nc2ccc(O)c3ncccc23)c1 | inactive |
| O=C(O)c1cc[c]([Hg][Cl])cc1 | inactive |
| O=C(COc1c(Br)cc(Br)c2cccnc12)N1CCc2ccccc2C1 | inactive |
| Cc1ccc(C(=O)Oc2oc(-c3ccccc3)nc2C=Nc2ccc(N(C)C)cc2)cc1 | inactive |
| COc1cccc2c(=O)c(C(=O)NCc3cccs3)c[nH]c12 | inactive |
| CCSc1nnc(NC(=O)c2ccccn2)s1 | inactive |
| CC(=O)NN1C(=O)/C(=C/c2ccc(Br)o2)SC1=S | inactive |

| Structure (SMILES) | GFP fluorescence, higher = induction |
| --- | --- |
| CCCc1cc(N2CCN(c3ccccn3)CC2)n2nc(C)c(-c3ccccc3)c2n1 | inactive |
| O=C(/C=C/c1ccccc1)c1cc(Br)ccc(=O)c1O | inactive |
| CC(Oc1ccc(Br)cc1)C(=O)Nc1nc(-c2ccccn2)cs1 (centres undefined) | inactive |
| COc1cc(/C=C/[N+](=O)[O-])ccc1O | inactive |
| O=C(Nc1cccc(-c2csc(Nc3ccccc3)n2)c1)c1ccccc1 | inactive |
| O=[N+]([O-])c1cc(CN2CCN(c3cccc(C(F)(F)F)c3)CC2)c2cccnc2c1O | inactive |
| CCOC(=O)CS(=O)(=O)c1nc(-c2ccc(F)cc2)cc(C(F)(F)F)n1 | inactive |
| O=C(Nc1cccc(C(F)(F)F)c1)Oc1ccc(Cl)c2cccnc12 | inactive |
| O=C(/C=C/c1ccccc1)NC(=S)NNC(=O)Cc1cccs1 | inactive |
| COC(=O)/C(=C/c1c[nH]c2ccccc12)[N+](=O)[O-] | inactive |
| COc1cc(NC(=O)c2cccc(C)c2)ccc1NC(=O)c1cc2ccccc2o1 | inactive |
| Oc1c(Br)cc(Br)cc1C=Nc1ccc2[nH]ncc2c1 | inactive |
| N#Cc1nccnc1S(=O)(=O)c1cccs1 | inactive |
| O=C(CS(=O)c1ccccc1[N+](=O)[O-])Oc1ccc(Br)cc1 (centres undefined) | inactive |
| Cc1cc(C)nc(S/C=C/C(=O)c2ccccc2)n1 | inactive |
| Cc1cc(S(=O)(=O)ON2C(=O)c3ccccc3C2=O)ccc1F | inactive |
| O=C(/C=C/c1ccc(Br)cc1)NC(=S)NNC(=O)c1ccco1 | inactive |
| O=C(Nc1ccc(Cl)cc1Cl)c1cccc(N2C(=O)C=CC2=O)c1 | inactive |
| Cc1ccc(C2=NN(S(C)(=O)=O)C(c3ccc4c(c3)OCO4)C2)cc1 (centres undefined) | inactive |
| O=C1c2cccc3c([N+](=O)[O-])ccc(c23)C(=O)N1CCc1ccccn1 | inactive |
| Cc1ccc(NC(=O)c2ccc(Cl)c(N3C(=O)C=CC3=O)c2)cc1 | inactive |

Same assay, conditions: S. cerevisiae CIT2-GFP strain, flow cytometry fluorescence, 3 h

| Structure (SMILES) | EC50 [µM] |
| --- | --- |
| N/C(=N\OC(=O)c1ccc(Cl)cc1Cl)c1ccccc1 | 4.16 |
| Cc1ccc(/C=C/C(=O)c2ccccc(=O)c2O)c(C)c1 | 14.7 |
| N/C(Cc1ccc(Cl)c(Cl)c1)=N\OC(=O)c1cccs1 | 10.3 |
| N/C(Cc1ccc(Cl)cc1)=N\OC(=O)c1ccccc1 | 3.35 |
